**Q.** Which melting point does the source give for `COCC#CC(=O)c1sc(NC(=O)c2ccncc2)nc1-c1ccco1` [Compound 319, N-[4-(2-Furyl)-5-(3-methoxyprop-1-ynylcarbonyl)thiazol-2-yl]pyridine-4-carboxamide] here?
**A.** The melting point was 198 to 200 °C.

**Q.** For `O=C(Nc1nc(-c2ccco2)c(C(=O)c2ccccn2)s1)OC1CCC1` [Compound 159, Cyclobutyl N-[4-(2-furyl)-5-(pyridin-2-ylcarbonyl)thiazol-2-yl]carbamate], which melting point is on record?
**A.** The melting point was 152 to 153 °C.

**Q.** Which melting point does the source give for `O=C(Nc1nc(-c2ccco2)c(C(=O)c2ccoc2)s1)c1ccncc1` [Compound 253, N-[4-(Furan-2-yl)-5-(furan-3-ylcarbonyl)thiazol-2-yl]pyridine-4-carboxamide] here?
**A.** The melting point was 217 to 231 °C.

**Q.** For `O=C(CCc1ccccc1)Nc1nc(-c2ccco2)c(C(=O)C2CCOCC2)s1` [Compound 432, N-[4-(2-Furyl)-5-(tetrahydropyran-4-ylcarbonyl)thiazol-2-yl]-3-phenylpropanamide], which melting point is on record?
**A.** The melting point was 161 to 164 °C.

**Q.** With `Cc1ccc(C(=O)c2sc(NC(=O)c3ccncc3)nc2-c2ccco2)nc1` [Compound 202, N-[4-(2-Furyl)-5-(5-methylpyridin-2-ylcarbonyl)thiazol-2-yl]pyridine-4-carboxamide] as the molecule, how does the melting point read?
**A.** The melting point was 255 to 257 °C.

**Q.** For `O=C(Nc1nc(-c2ccco2)c(C(=O)C2CCOCC2)s1)c1ccc(CN2CCCCC2)cc1` [Compound 385, N-[4-(2-Furyl)-5-(tetrahydropyran-4-ylcarbonyl)thiazol-2-yl]-4-(piperidinomethyl)benzamide], which melting point is on record?
**A.** The melting point was 160 to 162 °C.

**Q.** Which melting point does the source give for `Cn1ccc(-c2sc(NC(=O)c3ccncc3)nc2-c2ccco2)cc1=O` [Compound 37, N-[4-(2-Furyl)-5-(1-methyl-2-oxo-1,2-dihydropyridin-4-yl)thiazol-2-yl]pyridine-4-carboxamide] here?
**A.** The melting point was 280 to 282 °C.

**Q.** For `O=C(CN1CCC(N2CCCC2)CC1)Nc1nc(-c2ccco2)c(C(=O)C2CCOCC2)s1` [Compound 456, N-[4-(2-Furyl)-5-(tetrahydropyran-4-ylcarbonyl)thiazol-2-yl]-2-[4-(1-pyrrolidinyl)piperidino]acetamide], which melting point is on record?
**A.** Its melting point is 183 to 184 °C.

**Q.** With `Cc1cnc(C(=O)Nc2nc(-c3ccco3)c(C(=O)C3CCOCC3)s2)cn1` [Compound 415, N-[4-(2-Furyl)-5-(tetrahydropyran-4-ylcarbonyl)thiazol-2-yl]-5-methylpyrazine-2-carboxamide] as the molecule, how does the melting point read?
**A.** Its melting point is 130 to 131 °C.

**Q.** Which melting point does the source give for `COc1ccc(OC)c(C(=O)Nc2nc(-c3ccco3)c(C(=O)C3CCOCC3)s2)c1` [Compound 390, N-[4-(2-Furyl)-5-(tetrahydropyran-4-ylcarbonyl)thiazol-2-yl]-2,5-dimethoxybenzamide] here?
**A.** Its melting point is 107 to 110 °C.

**Q.** For `O=C(Nc1nc(-c2ccco2)c(C(=O)c2ccccn2)s1)OC1CCCC1` [Compound 160, Cyclopentyl N-[4-(2-furyl)-5-(pyridin-2-ylcarbonyl)thiazol-2-yl]carbamate], which melting point is on record?
**A.** Its melting point is 162 to 163 °C.

**Q.** With `O=C(Nc1nc(-c2ccco2)c(C(=O)c2ccccn2)s1)c1ccnc(Cl)c1` [Compound 122, 2-Chloro-N-[4-(2-furyl)-5-(pyridin-2-ylcarbonyl)thiazol-2-yl]pyridine-4-carboxamide] as the molecule, how does the melting point read?
**A.** The melting point was 219 to 225 °C.

**Q.** With `O=C(Nc1nc(-c2ccco2)c(C(=O)C2CCOCC2)s1)c1ccoc1` [Compound 421, N-[4-(2-Furyl)-5-(tetrahydropyran-4-ylcarbonyl)thiazol-2-yl]furan-3-carboxamide] as the molecule, how does the melting point read?
**A.** The melting point was 236 to 238 °C.

**Q.** For `C[C@@H]1CN(CC(=O)Nc2nc(-c3ccco3)c(C(=O)c3ccccn3)s2)C[C@H](C)O1` [Compound 173, 2-(cis-2,6-Dimethylmorpholino)-N-[4-(2-furyl)-5-(pyridin-2-ylcarbonyl)thiazol-2-yl]acetamide], which melting point is on record?
**A.** Its melting point is 188 to 191 °C.

**Q.** For `CC(=O)N1CCN(CC(=O)Nc2nc(-c3ccco3)c(C(=O)c3ccccn3)s2)CC1` [Compound 183, 2-(4-Acetylpiperazin-1-yl)-N-[4-(2-furyl)-5-(pyridin-2-ylcarbonyl)thiazol-2-yl]acetamide], which melting point is on record?
**A.** The melting point was 170 to 171 °C.

**Q.** For `COc1cccc(OC)c1C(=O)Nc1nc(-c2ccco2)c(C(=O)C2CCOCC2)s1` [Compound 391, N-[4-(2-Furyl)-5-(tetrahydropyran-4-ylcarbonyl)thiazol-2-yl]-2,6-dimethoxybenzamide], which melting point is on record?
**A.** Its melting point is 152 to 156 °C.

**Q.** Which melting point does the source give for `O=C(Nc1nc(-c2ccco2)c(C(=O)C2CCOCC2)s1)c1ccc(F)cc1F` [Compound 395, 2,4-Difluoro-N-[4-(2-furyl)-5-(tetrahydropyran-4-ylcarbonyl)thiazol-2-yl]benzamide] here?
**A.** Its melting point is 213 to 215 °C.

**Q.** Which melting point does the source give for `Cc1ccccc1C(=O)Nc1nc(-c2ccco2)c(C(=O)C2CCOCC2)s1` [Compound 363, N-[4-(2-Furyl)-5-(tetrahydropyran-4-ylcarbonyl)thiazol-2-yl]-2-methylbenzamide] here?
**A.** The melting point was 204 to 206 °C.

**Q.** Which melting point does the source give for `O=C(Nc1nc(-c2ccco2)c(C(=O)c2ccc(=O)n(Cc3ccccc3)c2)s1)c1ccncc1` [Compound 271, N-[5-(1-Benzyl-2-oxo-1,2-dihydropyridin-5-ylcarbonyl)-4-(2-furyl)thiazol-2-yl]pyridine-4-carboxamide] here?
**A.** The melting point was 265 to 282 °C (dec.).

**Q.** With `O=C(Nc1nc(-c2ccco2)c(C(=O)c2ccccn2)s1)c1cccs1` [Compound 149, N-[4-(2-Furyl)-5-(pyridin-2-ylcarbonyl)thiazol-2-yl]-thiophene-2-carboxamide] as the molecule, how does the melting point read?
**A.** The melting point was 197 to 199 °C.

**Q.** Which melting point does the source give for `COc1cccc(C(=O)Nc2nc(-c3ccco3)c(C(=O)c3ccccn3)s2)c1` [Compound 109, N-[4-(2-Furyl)-5-(pyridin-2-ylcarbonyl)thiazol-2-yl]-3-methoxybenzamide] here?
**A.** The melting point was 165 to 166 °C.

**Q.** For `O=C(c1ccccn1)c1sc(NC(=O)N2CCCCC2)nc1-c1ccco1` [Compound 165, N-[4-(2-Furyl)-5-(pyridin-2-ylcarbonyl)thiazol-2-yl]piperidine-1-carboxamide], which melting point is on record?
**A.** Its melting point is 182 to 185 °C.

**Q.** Which melting point does the source give for `Cc1occc1C(=O)Nc1nc(-c2ccco2)c(C(=O)c2ccccn2)s1` [Compound 147, N-[4-(2-Furyl)-5-(pyridin-2-ylcarbonyl)thiazol-2-yl]-2-methylfuran-3-carboxamide] here?
**A.** Its melting point is 183 to 186 °C.

**Q.** Which melting point does the source give for `O=C(Nc1nc(-c2ccco2)c(C(=O)C2CCOCC2)s1)c1ccc(CN2CCOCC2)cc1` [Compound 387, N-[4-(2-Furyl)-5-(tetrahydropyran-4-ylcarbonyl)thiazol-2-yl]-4-(morpholinomethyl)benzamide] here?
**A.** Its melting point is 92 to 96 °C.

**Q.** Which melting point does the source give for `O=C(CN1CCC2(CC1)OCCO2)Nc1nc(-c2ccco2)c(C(=O)C2CCOCC2)s1` [Compound 459, 2-(1,4-Dioxa-8-azaspiro[4.5]decan-8-yl)-N-[4-(2-furyl)-5-(tetrahydropyran-4-ylcarbonyl)thiazol-2-yl]acetamide] here?
**A.** Its melting point is 186 to 187 °C.

**Q.** With `O=C(Nc1nc(-c2ccco2)c(C(=O)c2ccc(N3CCOCC3)nc2)s1)c1ccncc1` [Compound 231, N-[4-(2-Furyl)-5-(2-morpholinopyridin-5-ylcarbonyl)thiazol-2-yl]pyridine-4-carboxamide] as the molecule, how does the melting point read?
**A.** Its melting point is 195 to 220 °C.

**Q.** Which melting point does the source give for `Cc1ccc(C(=O)Nc2nc(-c3ccco3)c(C(=O)C3CCOCC3)s2)o1` [Compound 417, N-[4-(2-Furyl)-5-(tetrahydropyran-4-ylcarbonyl)thiazol-2-yl]-5-methylfuran-2-carboxamide] here?
**A.** Its melting point is 209 to 212 °C.

**Q.** For `CN(C)c1ccc(C(=O)c2sc(NC(=O)c3ccncc3)nc2-c2ccco2)cn1` [Compound 230, N-{5-[2-(Dimethylamino)pyridin-5-ylcarbonyl]-4-(2-furyl)thiazol-2-yl}pyridine-4-carboxamide], which melting point is on record?
**A.** Its melting point is 260 to 265 °C (dec.).

**Q.** With `O=C(Nc1nc(-c2ccco2)c(C(=O)C2CCOCC2)s1)c1ccccn1` [Compound 412, N-[4-(2-Furyl)-5-(tetrahydropyran-4-ylcarbonyl)thiazol-2-yl]pyridine-2-carboxamide] as the molecule, how does the melting point read?
**A.** The melting point was 185 to 186 °C.

**Q.** With `COc1cccc(C(=O)Nc2nc(-c3ccco3)c(C(=O)C3CCOCC3)s2)c1OC` [Compound 388, N-[4-(2-Furyl)-5-(tetrahydropyran-4-ylcarbonyl)thiazol-2-yl]-2,3-dimethoxybenzamide] as the molecule, how does the melting point read?
**A.** The melting point was 198 to 200 °C.

**Q.** For `CC(C)N1CCN(CC(=O)Nc2nc(-c3ccco3)c(C(=O)c3ccccn3)s2)CC1` [Compound 182, N-[4-(2-Furyl)-5-(pyridin-2-ylcarbonyl)thiazol-2-yl]-2-(4-isopropylpiperazine-1-yl)acetamide], which melting point is on record?
**A.** The melting point was 154 to 155 °C.

**Q.** With `O=C(CN1CCN(c2ncccn2)CC1)Nc1nc(-c2ccco2)c(C(=O)c2ccccn2)s1` [Compound 186, N-[4-(2-Furyl)-5-(pyridin-2-ylcarbonyl)thiazol-2-yl]-2-[4-(2-pyrimidinyl)piperazin-1-yl]acetamide] as the molecule, how does the melting point read?
**A.** Its melting point is 199 to 200 °C.

**Q.** Which melting point does the source give for `CC(C)C(=O)c1sc(NC(=O)C2CC2)nc1-c1ccco1` [Compound 301, N-[4-(2-Furyl)-5-isobutyrylthiazol-2-yl]cyclopropanecarboxamide] here?
**A.** Its melting point is 178 to 182 °C.

**Q.** With `Cn1cc(C(=O)Nc2nc(-c3ccco3)c(C(=O)c3ccccc3)s2)ccc1=O` [Compound 58, N-[5-Benzoyl-4-(2-furyl)thiazol-2-yl]-1-methyl-2-oxo-1,2-dihydropyridine-5-carboxamide] as the molecule, how does the melting point read?
**A.** The melting point was 220 to 225 °C.

**Q.** Which melting point does the source give for `O=C(Nc1nc(-c2ccco2)c(C(=O)C2CCOCC2)s1)c1ccc(F)c(F)c1` [Compound 398, 3,4-Difluoro-N-[4-(2-furyl)-5-(tetrahydropyran-4-ylcarbonyl)thiazol-2-yl]benzamide] here?
**A.** Its melting point is 208 to 210 °C.

**Q.** With `CN(C)c1cccc(C(=O)Nc2nc(-c3ccco3)c(C(=O)C3CCOCC3)s2)c1` [Compound 369, 3-(Dimethylamino)-N-[4-(2-furyl)-5-(tetrahydropyran-4-ylcarbonyl)thiazol-2-yl]benzamide] as the molecule, how does the melting point read?
**A.** Its melting point is 239 to 243 °C.

**Q.** Which melting point does the source give for `COc1cc(C(=O)c2sc(NC(=O)c3ccncc3)nc2-c2ccco2)ccn1` [Compound 243, N-[4-(2-Furyl)-5-(2-methoxypyridin-4-ylcarbonyl)thiazol-2-yl]pyridine-4-carboxamide] here?
**A.** The melting point was 237 to 239 °C.

**Q.** With `CN(C)Cc1cc(C(=O)Nc2nc(-c3ccco3)c(C(=O)c3ccccc3)s2)ccn1` [Compound 49, N-[5-Benzoyl-4-(2-furyl)thiazol-2-yl]-2-(dimethylaminomethyl)pyridine-4-carboxamide] as the molecule, how does the melting point read?
**A.** The melting point was 205 to 209 °C.

Source: patent publication US7928098B2, “Therapeutic and/or preventive agents for a sleep disorder” (Kyowa Hakko Kirin Co., Ltd., priority 2005, dated 2011)
